Test results published in US7063857B1, “Use of macrolide compounds for the treatment of dry eye” (Sucampo AG, priority 1999, dated 2006).

Tests used:
healthy subjects = experiment: Tear film breakup time (BUT) after instillation in healthy subjects; assay type: in vivo, human; conditions: instilled four times a day for 7 days, healthy subjects (6 per group), right eye, difference between before and 8 days after instillation
Description: A suspension having the same formulation as in Example 1 was produced using FK506 as the active ingredient to give a 0.01% FK506 eye drop (suspension) and 0.1% FK506 eye drop (suspension) as test drugs. The base for the eye drops was used as the control drug. The above-mentioned test drugs and the control drug were instilled four times a day for 7 days to 18 healthy subjects (6 per group) at 8:00, 11:00, 14:00 and 17:00. The tear film breakup time (sec) of the right eye was measured before instillation and 8 days after instillation. The difference between before and after the instillation was calculated, and taken as the mean variation of the tear film breakup time. The tear film breakup time was measured according to the conventional method. After instillation of fluorescein, the tear film was formed on the surface of the eye by nictitation.

[1] = tested on: person having subjective symptoms of dry eye; experiment: Instillation of FK506 eye drop in a person with subjective symptoms of dry eye; assay type: in vivo, human; conditions: 0.06% eye drop (suspension), twice a day for two weeks, one patient
Description: Using FK506 as the active ingredient in the present invention, a 0.06% eye drop (suspension) having the following formulation was used as a test drug. A suspension having the following formulation was produced in the same manner as in EP-A-0406791 (Example 6). [table]

C=CC[C@@H]1/C=C(\C)C[C@H](C)C[C@H](OC)[C@H]2O[C@@](O)(C(=O)C(=O)N3CCCC[C@H]3C(=O)O[C@H](/C(C)=C/[C@@H]3CC[C@@H](O)[C@H](OC)C3)[C@H](C)[C@@H](O)CC1=O)[C@H](C)C[C@@H]2OC [FK506, 17-allyl-1,14-dihydroxy-12-[2-(4-hydroxy-3-methoxycyclohexyl)-1-methylvinyl]-23,25-dimethoxy-13,19,21,27-tetramethyl-11,28-dioxa-4-azatricyclo-[22.3 .1.0^4,9]octacos-18-ene-2,3,10,16-tetraone]
Mean variation of tear film breakup time (healthy subjects; 0.01% FK506 eye drop (suspension)): +0.58 sec | Mean variation of tear film breakup time (healthy subjects; 0.1% FK506 eye drop (suspension)): +0.75 sec | subjective symptoms of dry eye (sense of dryness, foreign body and grittiness) [1]: the subjective symptoms disappeared
